# Reference: ChEMBL document CHEMBL1697723, “A predictive ligand-based Bayesian model for human drug-induced liver injury” (Drug Metab Dispos, 2010)
# Tested on: Hepatotoxicity
# Assay: Human drug-induced liver injury (DILI) modelling dataset from Ekins et al
# Details: not given
row,SMILES,Hepatotoxicity
1,CCCCC1=NC2(CCCC2)C(=O)N1Cc1ccc(-c2ccccc2-c2nnn[nH]2)cc1 [IRBESARTAN],DILI negative (test set)
2,Cc1cc(C(=O)NNCc2ccccc2)no1 [ISOCARBOXAZID],DILI negative (test set)
3,NNC(=O)c1ccncc1 [ISONIAZID],DILI positive (training set)
4,O=[N+]([O-])O[C@H]1CO[C@H]2[C@@H]1OC[C@H]2O[N+](=O)[O-] [ISOSORBIDE DINITRATE],DILI negative (test set)
5,CC1=C(/C=C/C(C)=C/C=C/C(C)=C\C(=O)O)C(C)(C)CCC1 [ISOTRETINOIN],DILI positive (training set)
6,Cc1cc(NC(=O)C2=C(O)c3ccccc3S(=O)(=O)N2C)no1 [ISOXICAM],DILI negative (test set)
7,CC(COc1ccccc1)NC(C)C(O)c1ccc(O)cc1.Cl (stereo unspecified) [ISOXSUPRINE HYDROCHLORIDE],DILI negative (training set)
8,CC(=O)N1CCN(c2ccc(OCC3COC(Cn4ccnc4)(c4ccc(Cl)cc4Cl)O3)cc2)CC1 (stereo unspecified) [KETOCONAZOLE],DILI positive (test set)
9,CC(C(=O)O)c1cccc(C(=O)c2ccccc2)c1 (stereo unspecified) [KETOPROFEN],DILI negative (test set)
10,NC(CO)(CO)CO.O=C(c1ccccc1)c1ccc2n1CCC2C(=O)O (stereo unspecified) [KETOROLAC TROMETHAMINE],DILI positive (training set)
11,CN1CCC(=C2c3ccccc3CC(=O)c3sccc32)CC1 [KETOTIFEN],DILI negative (training set)
12,CC(CCc1ccccc1)NCC(O)c1ccc(O)c(C(N)=O)c1 (stereo unspecified) [LABETALOL],DILI positive (training set)
13,Nc1ccn([C@@H]2CS[C@H](CO)O2)c(=O)n1 [LAMIVUDINE],DILI negative (training set)
14,CS(=O)(=O)CCNCc1ccc(-c2ccc3ncnc(Nc4ccc(OCc5cccc(F)c5)c(Cl)c4)c3c2)o1 [LAPATINIB],DILI positive (test set)
15,Cc1oncc1C(=O)Nc1ccc(C(F)(F)F)cc1 [LEFLUNOMIDE],DILI positive (training set)
16,Nc1nc(=O)c2c([nH]1)NCC(CNc1ccc(C(=O)N[C@@H](CCC(=O)[O-])C(=O)[O-])cc1)N2C=O.[Ca+2] (stereo partly specified) [LEUCOVORIN CALCIUM],DILI negative (test set)
17,N[C@@H](Cc1ccc(O)c(O)c1)C(=O)O [LEVODOPA],DILI negative (training set)
18,C[C@H]1COc2c(N3CCN(C)CC3)c(F)cc3c(=O)c(C(=O)O)cn1c23.C[C@H]1COc2c(N3CCN(C)CC3)c(F)cc3c(=O)c(C(=O)O)cn1c23.O [LEVOFLOXACIN],DILI negative (training set)
19,N[C@@H](Cc1cc(I)c(Oc2ccc(O)c(I)c2)c(I)c1)C(=O)O [LIOTHYRONINE],DILI negative (test set)
20,NCCCC[C@H](N[C@@H](CCc1ccccc1)C(=O)O)C(=O)N1CCC[C@H]1C(=O)O [LISINOPRIL ANHYDROUS],DILI positive (training set)
21,C[C@H](CCC(=O)O)[C@H]1CC[C@H]2[C@@H]3CC[C@@H]4C[C@H](O)CC[C@]4(C)[C@H]3CC[C@]12C [LITHOCHOLIC ACID],DILI positive (training set)
22,CN(C)C(=O)C(CCN1CCC(O)(c2ccc(Cl)cc2)CC1)(c1ccccc1)c1ccccc1.Cl [LOPERAMIDE HYDROCHLORIDE],DILI negative (training set)
23,N[C@@H](C(=O)N[C@@H]1C(=O)N2C(C(=O)O)=C(Cl)CC[C@H]12)c1ccccc1 [LORACARBEF ANHYDROUS],DILI negative (test set)

row,SMILES,Hepatotoxicity
1,CCCCc1nc(Cl)c(CO)n1Cc1ccc(-c2ccccc2-c2nn[nH]n2)cc1 [LOSARTAN],DILI positive (test set)
2,Cc1ccc(Nc2c(F)cccc2Cl)c(CC(=O)O)c1 [LUMIRACOXIB],DILI positive (test set)
3,O=C(O)/C=C\C(=O)O [MALEIC ACID],DILI positive (training set)
4,COC(=O)Nc1nc2ccc(C(=O)c3ccccc3)cc2[nH]1 [MEBENDAZOLE],DILI positive (training set)
5,Cc1ccc(Cl)c(Nc2ccccc2C(=O)[O-])c1Cl.O.[Na+] [MECLOFENAMATE SODIUM],DILI positive (training set)
6,CC(=O)O[C@]1(C(C)=O)CC[C@H]2[C@@H]3C[C@H](C)C4=CC(=O)CC[C@]4(C)[C@H]3CC[C@@]21C [MEDROXYPROGESTERONE ACETATE],DILI negative (training set)
7,COc1ccc2[nH]cc(CCNC(C)=O)c2c1 [MELATONIN],DILI negative (training set)
8,Cc1cnc(NC(=O)C2=C(O)c3ccccc3S(=O)(=O)N2C)s1 [MELOXICAM],DILI negative (test set)
9,CC12CC3CC(C)(C1)CC(N)(C3)C2 [MEMANTINE],DILI negative (training set)
10,CC1=CC(=O)c2ccccc2C1=O [MENADIONE],DILI positive (test set)
11,CCC1(c2ccccc2)C(=O)NC(=O)N(C)C1=O (stereo unspecified) [MEPHOBARBITAL],DILI positive (test set)
12,CCCC(C)(COC(N)=O)COC(N)=O [MEPROBAMATE],DILI positive (test set)
13,C#C[C@]1(O)CC[C@H]2[C@@H]3CCc4cc(OC)ccc4[C@H]3CC[C@@]21C [MESTRANOL],DILI positive (test set)
14,CC(=O)Nc1cccc(O)c1 [METACETAMOL],DILI negative (training set)
15,CC(C)NCC(O)c1cc(O)cc(O)c1.CC(C)NCC(O)c1cc(O)cc(O)c1.O=S(=O)(O)O (stereo unspecified) [METAPROTERENOL SULFATE],DILI positive (training set)
16,C=C1c2cccc(O)c2C(=O)C2=C(O)[C@]3(O)C(=O)C(C(N)=O)=C(O)[C@@H](N(C)C)[C@@H]3[C@@H](O)[C@H]12.Cl [METHACYCLINE HYDROCHLORIDE],DILI positive (training set)
17,CN(Cc1cnc2nc(N)nc(N)c2n1)c1ccc(C(=O)N[C@@H](CCC(=O)O)C(=O)O)cc1 [METHOTREXATE],DILI positive (training set)
18,COc1ccc(OC)c(C(O)C(C)N)c1.Cl (stereo unspecified) [METHOXAMINE HYDROCHLORIDE],DILI negative (training set)
19,COCC(=O)O [METHOXYACETIC ACID],DILI positive (test set)
20,C[C@](N)(Cc1ccc(O)c(O)c1)C(=O)O [METHYLDOPA],DILI positive (test set)
21,CC[C@@H](CO)NC(=O)[C@@H]1C=C2c3cccc4[nH]cc(c34)C[C@H]2N(C)C1.O=C(O)/C=C\C(=O)O [METHYLERGONOVINE MALEATE],DILI negative (training set)
22,COC(=O)C(c1ccccc1)C1CCCCN1 (stereo unspecified) [METHYLPHENIDATE],DILI positive (test set)

# Same assay, conditions: Liver
row,SMILES,Hepatotoxicity
1,CC(C)NCC(O)c1ccc(O)c(O)c1.Cl (stereo unspecified) [ISOPROTERENOL HYDROCHLORIDE],DILI negative (training set)
2,CCN(CC)CC(=O)Nc1c(C)cccc1C [LIDOCAINE],DILI negative (training set)
3,CNCCCC12CCC(c3ccccc31)c1ccccc12 [MAPROTILINE],DILI negative (training set)
4,Cc1cccc(Nc2ccccc2C(=O)O)c1C [MEFENAMIC ACID],DILI positive (training set)
5,CN1CCCCC1CCN1c2ccccc2Sc2ccc([S+](C)[O-])cc21.O=S(=O)(O)c1ccccc1 (stereo unspecified) [MESORIDAZINE BESYLATE],DILI positive (training set)
6,CN(C)C(=N)N=C(N)N [METFORMIN],DILI negative (test set)
